Results from patent US20110039721A1, “METHOD FOR PREDICTION ABOUT CARCINOGENICITY OF SUBSTANCE IN RODENT” (Chemicals Evaluation and Research Institute, priority 2007, published 2011).
Where two headings read alike, the source gives them in different places.

Tests used:
rodent = details: cited from earlier work
[1] = tested on: mRNA expressed from the genes (A) to (D) in rat liver; test: Behavior of genes (mRNA expression level, oligo-DNA microarray) in rat liver after 28-day oral administration; type: in vivo
Method in brief: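 Male F344 SPF rats, 5 weeks old, four per group, received carcinogens, non-carcinogens or solvent vehicle by oral gavage once daily for 28 days. Liver total RNA was then extracted. Changes of ≥1.5-fold or ≤1/1.5 versus vehicle control, in a consistent direction across carcinogens, counted as significant.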

[2] = classification of the substance (C+/C−)
[3] = gene group (A), Unigene No. Rn.167075
[4] = gene group (C), Unigene No. Rn.120914

O=C(c1ccccc1)C(O)c1ccccc1 (stereo not drawn) [TS038, Benzoin]
Carcinogenicity (rodent; [2]): C−
Behavior of gene caused by administration of chemical substance, Gene No. 4846 ([1]; gene group (A), Unigene No. Rn.144554): −
Behavior of gene caused by administration of chemical substance, Gene No. 2026 [1, 3]: +
Behavior of gene caused by administration of chemical substance, Gene No. 4218 [1, 3]: −
Behavior of gene caused by administration of chemical substance, Gene No. 6182 ([1]; gene group (A), Unigene No. Rn.5834): −
Behavior of gene caused by administration of chemical substance, Gene No. 5600 ([1]; gene group (A), Unigene No. Rn.9836): −
Behavior of gene caused by administration of chemical substance, Gene No. 1494 ([1]; gene group (B), Unigene No. Rn.1430): −
Behavior of gene caused by administration of chemical substance, Gene No. 2045 ([1]; gene group (B), Unigene No. Rn.19329): −
Behavior of gene caused by administration of chemical substance, Gene No. 2203 ([1]; gene group (B), Unigene No. Rn.21240): −
Behavior of gene caused by administration of chemical substance, Gene No. 533 ([1]; gene group (C), Unigene No. Rn.106184): −
Behavior of gene caused by administration of chemical substance, Gene No. 725 ([1]; gene group (C), Unigene No. Rn.108075): −
Behavior of gene caused by administration of chemical substance, Gene No. 1163 ([1]; gene group (C), Unigene No. Rn.11766): −
Behavior of gene caused by administration of chemical substance, Gene No. 4973 ([1]; gene group (C), Unigene No. Rn.118529): +
Behavior of gene caused by administration of chemical substance, Gene No. 4095 ([1]; gene group (C), Unigene No. Rn.119024): +
Behavior of gene caused by administration of chemical substance, Gene No. 1334 [1, 4]: −
Behavior of gene caused by administration of chemical substance, Gene No. 6620 [1, 4]: −
Behavior of gene caused by administration of chemical substance, Gene No. 6303 ([1]; gene group (C), Unigene No. Rn.123063): +
Behavior of gene caused by administration of chemical substance, Gene No. 5878 ([1]; gene group (C), Unigene No. Rn.143213): −
Behavior of gene caused by administration of chemical substance, Gene No. 1131 ([1]; gene group (C), Unigene No. Rn.144946): −
Behavior of gene caused by administration of chemical substance, Gene No. 1562 ([1]; gene group (C), Unigene No. Rn.14744): −
Behavior of gene caused by administration of chemical substance, Gene No. 1741 ([1]; gene group (C), Unigene No. Rn.1647): −
Behavior of gene caused by administration of chemical substance, Gene No. 893 ([1]; gene group (C), Unigene No. Rn.164817): −
Behavior of gene caused by administration of chemical substance, Gene No. 6026 ([1]; gene group (C), Unigene No. Rn.167685): +
Behavior of gene caused by administration of chemical substance, Gene No. 154 ([1]; gene group (C), Unigene No. Rn.185941): +
Behavior of gene caused by administration of chemical substance, Gene No. 1993 ([1]; gene group (C), Unigene No. Rn.18728): +
Behavior of gene caused by administration of chemical substance, Gene No. 813 ([1]; gene group (C), Unigene No. Rn.201760): −
Behavior of gene caused by administration of chemical substance, Gene No. 2494 ([1]; gene group (C), Unigene No. Rn.23969): −
Behavior of gene caused by administration of chemical substance, Gene No. 2546 ([1]; gene group (C), Unigene No. Rn.24561): +
Behavior of gene caused by administration of chemical substance, Gene No. 3776 ([1]; gene group (C), Unigene No. Rn.43232): −
Behavior of gene caused by administration of chemical substance, Gene No. 3929 ([1]; gene group (C), Unigene No. Rn.4620): −
Behavior of gene caused by administration of chemical substance, Gene No. 1119 ([1]; gene group (C), Unigene No. Rn.9757): +
Behavior of gene caused by administration of chemical substance, Gene No. 6742 ([1]; gene group (C), Unigene No. Rn.9779): −
Behavior of gene caused by administration of chemical substance, Gene No. 5634 ([1]; gene group (C), Unigene No. Rn.9862): +
Behavior of gene caused by administration of chemical substance, Gene No. 5726 ([1]; gene group (D), Unigene No. Rn.9939): −

ClC(Cl)Cl [TS056, Chloroform]
Carcinogenicity (rodent; [2]): C+
Behavior of gene caused by administration of chemical substance, Gene No. 154 ([1]; rat, in vivo): +
Behavior of gene caused by administration of chemical substance, Gene No. 533 ([1]; rat, in vivo): +
Behavior of gene caused by administration of chemical substance, Gene No. 725 ([1]; rat, in vivo): +
Behavior of gene caused by administration of chemical substance, Gene No. 813 ([1]; rat, in vivo): +
Behavior of gene caused by administration of chemical substance, Gene No. 893 ([1]; rat, in vivo): +
Behavior of gene caused by administration of chemical substance, Gene No. 1119 ([1]; rat, in vivo): +
Behavior of gene caused by administration of chemical substance, Gene No. 1131 ([1]; rat, in vivo): +
Behavior of gene caused by administration of chemical substance, Gene No. 1163 ([1]; rat, in vivo): +
Behavior of gene caused by administration of chemical substance, Gene No. 1334 ([1]; rat, in vivo): +
Behavior of gene caused by administration of chemical substance, Gene No. 1494 ([1]; rat, in vivo): +
Behavior of gene caused by administration of chemical substance, Gene No. 1562 ([1]; rat, in vivo): +
Behavior of gene caused by administration of chemical substance, Gene No. 1741 ([1]; rat, in vivo): +
Behavior of gene caused by administration of chemical substance, Gene No. 1993 ([1]; rat, in vivo): +
Behavior of gene caused by administration of chemical substance, Gene No. 2026 ([1]; rat, in vivo): +
Behavior of gene caused by administration of chemical substance, Gene No. 2045 ([1]; rat, in vivo): −
Behavior of gene caused by administration of chemical substance, Gene No. 2203 ([1]; rat, in vivo): −
Behavior of gene caused by administration of chemical substance, Gene No. 2494 ([1]; rat, in vivo): +
Behavior of gene caused by administration of chemical substance, Gene No. 2546 ([1]; rat, in vivo): +
Behavior of gene caused by administration of chemical substance, Gene No. 3776 ([1]; rat, in vivo): +
Behavior of gene caused by administration of chemical substance, Gene No. 3929 ([1]; rat, in vivo): +
Behavior of gene caused by administration of chemical substance, Gene No. 4095 ([1]; rat, in vivo): +
Behavior of gene caused by administration of chemical substance, Gene No. 4218 ([1]; rat, in vivo): −
Behavior of gene caused by administration of chemical substance, Gene No. 4846 ([1]; rat, in vivo): −
Behavior of gene caused by administration of chemical substance, Gene No. 4973 ([1]; rat, in vivo): +
Behavior of gene caused by administration of chemical substance, Gene No. 5600 ([1]; rat, in vivo): −
Behavior of gene caused by administration of chemical substance, Gene No. 5634 ([1]; rat, in vivo): +
Behavior of gene caused by administration of chemical substance, Gene No. 5726 ([1]; rat, in vivo): −
Behavior of gene caused by administration of chemical substance, Gene No. 5878 ([1]; rat, in vivo): +
Behavior of gene caused by administration of chemical substance, Gene No. 6026 ([1]; rat, in vivo): +
Behavior of gene caused by administration of chemical substance, Gene No. 6182 ([1]; rat, in vivo): −
Behavior of gene caused by administration of chemical substance, Gene No. 6303 ([1]; rat, in vivo): +
Behavior of gene caused by administration of chemical substance, Gene No. 6620 ([1]; rat, in vivo): +
Behavior of gene caused by administration of chemical substance, Gene No. 6742 ([1]; rat, in vivo): +

O=[N+]([O-])c1ccc2ccc3cccc4ccc1c2c34 [TS064, 1-Nitropyrene]
Carcinogenicity (rodent; classification C+/C−): C+
Behavior of gene caused by administration of chemical substance ([1]; Gene No. 154, Rn.185941, group (C)): −
Behavior of gene caused by administration of chemical substance ([1]; Gene No. 533, Rn.106184, group (C)): −
Behavior of gene caused by administration of chemical substance ([1]; Gene No. 725, Rn.108075, group (C)): −
Behavior of gene caused by administration of chemical substance ([1]; Gene No. 813, Rn.201760, group (C)): −
Behavior of gene caused by administration of chemical substance ([1]; Gene No. 893, Rn.164817, group (C)): −
Behavior of gene caused by administration of chemical substance ([1]; Gene No. 1119, Rn.9757, group (C)): −
Behavior of gene caused by administration of chemical substance ([1]; Gene No. 1131, Rn.144946, group (C)): −
Behavior of gene caused by administration of chemical substance ([1]; Gene No. 1163, Rn.11766, group (C)): −
Behavior of gene caused by administration of chemical substance ([1]; Gene No. 1334, Rn.120914, group (C)): −
Behavior of gene caused by administration of chemical substance ([1]; Gene No. 1494, Rn.1430, group (B)): −
Behavior of gene caused by administration of chemical substance ([1]; Gene No. 1562, Rn.14744, group (C)): −
Behavior of gene caused by administration of chemical substance ([1]; Gene No. 1741, Rn.1647, group (C)): −
Behavior of gene caused by administration of chemical substance ([1]; Gene No. 1993, Rn.18728, group (C)): −
Behavior of gene caused by administration of chemical substance ([1]; Gene No. 2026, Rn.167075, group (A)): −
Behavior of gene caused by administration of chemical substance ([1]; Gene No. 2045, Rn.19329, group (B)): −
Behavior of gene caused by administration of chemical substance ([1]; Gene No. 2203, Rn.21240, group (B)): +
Behavior of gene caused by administration of chemical substance ([1]; Gene No. 2494, Rn.23969, group (C)): −
Behavior of gene caused by administration of chemical substance ([1]; Gene No. 2546, Rn.24561, group (C)): −
Behavior of gene caused by administration of chemical substance ([1]; Gene No. 3776, Rn.43232, group (C)): −
Behavior of gene caused by administration of chemical substance ([1]; Gene No. 3929, Rn.4620, group (C)): −
Behavior of gene caused by administration of chemical substance ([1]; Gene No. 4095, Rn.119024, group (C)): −
Behavior of gene caused by administration of chemical substance ([1]; Gene No. 4218, Rn.167075, group (A)): −
Behavior of gene caused by administration of chemical substance ([1]; Gene No. 4846, Rn.144554, group (A)): −
Behavior of gene caused by administration of chemical substance ([1]; Gene No. 4973, Rn.118529, group (C)): −
Behavior of gene caused by administration of chemical substance ([1]; Gene No. 5600, Rn.9836, group (A)): −
Behavior of gene caused by administration of chemical substance ([1]; Gene No. 5634, Rn.9862, group (C)): −
Behavior of gene caused by administration of chemical substance ([1]; Gene No. 5726, Rn.9939, group (D)): −
Behavior of gene caused by administration of chemical substance ([1]; Gene No. 5878, Rn.143213, group (C)): −
Behavior of gene caused by administration of chemical substance ([1]; Gene No. 6026, Rn.167685, group (C)): −
Behavior of gene caused by administration of chemical substance ([1]; Gene No. 6182, Rn.5834, group (A)): −
Behavior of gene caused by administration of chemical substance ([1]; Gene No. 6303, Rn.123063, group (C)): −
Behavior of gene caused by administration of chemical substance ([1]; Gene No. 6620, Rn.120914, group (C)): −
Behavior of gene caused by administration of chemical substance ([1]; Gene No. 6742, Rn.9779, group (C)): −
